{"source": "PubChem BioAssay AID1259407", "about": "(Chemical Carcinogenesis Research Information System (CCRIS), 2018)", "test_system": "CCRIS mutagenicity, Ames/micronucleus/aberration tests", "test": "CCRIS mutagenicity studies", "key": {"[1]": {"settings": "Test System: AMES SALMONELLA TYPHIMURIUM, Strain/Indicator: TA98, Metabolic Activation: NONE, Method: STANDARD PLATE"}, "[2]": {"settings": "Test System: AMES SALMONELLA TYPHIMURIUM, Strain/Indicator: TA98, Metabolic Activation: RAT, LIVER, S-9, AROCLOR 1254, Method: STANDARD PLATE"}, "[3]": {"settings": "Test System: AMES SALMONELLA TYPHIMURIUM, Strain/Indicator: TA100, Metabolic Activation: NONE, Method: STANDARD PLATE"}, "[4]": {"settings": "Test System: AMES SALMONELLA TYPHIMURIUM, Strain/Indicator: TA100, Metabolic Activation: RAT, LIVER, S-9, AROCLOR 1254, Method: STANDARD PLATE"}, "[5]": {"settings": "Test System: AMES SALMONELLA TYPHIMURIUM, Strain/Indicator: TA102, Metabolic Activation: NONE, Method: STANDARD PLATE"}, "[6]": {"settings": "Test System: AMES SALMONELLA TYPHIMURIUM, Strain/Indicator: TA102, Metabolic Activation: RAT, LIVER, S-9, AROCLOR 1254, Method: STANDARD PLATE"}, "[7]": {"settings": "Test System: AMES SALMONELLA TYPHIMURIUM, Strain/Indicator: TA98, Metabolic Activation: NONE, Method: PREINCUBATION"}, "[8]": {"settings": "Test System: AMES SALMONELLA TYPHIMURIUM, Strain/Indicator: TA100, Metabolic Activation: NONE, Method: PREINCUBATION"}, "[9]": {"settings": "Test System: MOUSE LYMPHOMA, Strain/Indicator: L5178Y (TK+/TK-), Metabolic Activation: NONE, Method: SUSPENSION/PLATE"}, "[10]": {"settings": "Test System: MOUSE LYMPHOMA, Strain/Indicator: L5178Y (TK+/TK-), Metabolic Activation: RAT, LIVER, S-9, AROCLOR 1254, Method: SUSPENSION/PLATE"}}, "note": "Active and inactive are the calls of the source. How the calls were made is not given here."}
{"smiles": "CCNc1nc(Cl)nc(NCC)n1", "values": [{"measurement": "mutagenic call", "setting": "Test System: AMES SALMONELLA TYPHIMURIUM, Strain/Indicator: TA97, Metabolic Activation: NONE, Method: STANDARD PLATE", "value": "inactive; negative"}, {"measurement": "mutagenic call", "setting": "Test System: AMES SALMONELLA TYPHIMURIUM, Strain/Indicator: TA97, Metabolic Activation: RAT, LIVER, S-9, AROCLOR 1254, Method: STANDARD PLATE", "value": "inactive; negative"}, {"measurement": "mutagenic call", "setting": "[1]", "value": "inactive; negative"}, {"measurement": "mutagenic call", "setting": "[2]", "value": "inactive; negative"}, {"measurement": "mutagenic call", "setting": "[3]", "value": "inactive; negative"}, {"measurement": "mutagenic call", "setting": "[4]", "value": "inactive; negative"}, {"measurement": "mutagenic call", "setting": "[5]", "value": "inactive; negative"}, {"measurement": "mutagenic call", "setting": "[6]", "value": "inactive; negative"}]}
{"smiles": "CNC(=O)NC", "values": [{"measurement": "mutagenic call", "setting": "[7]", "value": "inactive; negative"}, {"measurement": "mutagenic call", "setting": "Test System: AMES SALMONELLA TYPHIMURIUM, Strain/Indicator: TA98, Metabolic Activation: RAT, LIVER, S-9, AROCLOR 1254 (5, 15 OR 30%), Method: PREINCUBATION", "value": "inactive; negative"}, {"measurement": "mutagenic call", "setting": "[8]", "value": "inactive; negative"}, {"measurement": "mutagenic call", "setting": "Test System: AMES SALMONELLA TYPHIMURIUM, Strain/Indicator: TA100, Metabolic Activation: RAT, LIVER, S-9, AROCLOR 1254 (5, 15 OR 30%), Method: PREINCUBATION", "value": "inactive; negative"}, {"measurement": "mutagenic call", "setting": "Test System: AMES SALMONELLA TYPHIMURIUM, Strain/Indicator: TA104, Metabolic Activation: NONE, Method: PREINCUBATION", "value": "inactive; negative"}, {"measurement": "mutagenic call", "setting": "Test System: AMES SALMONELLA TYPHIMURIUM, Strain/Indicator: TA104, Metabolic Activation: RAT, LIVER, S-9, AROCLOR 1254 (5, 15 OR 30%), Method: PREINCUBATION", "value": "inactive; negative"}, {"measurement": "mutagenic call", "setting": "[9]", "value": "inactive; negative"}, {"measurement": "mutagenic call", "setting": "[10]", "value": "inactive; negative"}]}
{"smiles": "CC(=O)C[C@@H]1CCCCCC(=O)O[C@H](CC(C)=O)CCC(=O)CCC(=O)O1", "values": [{"measurement": "mutagenic call", "setting": "Test System: CHINESE HAMSTER V-79, Strain/Indicator: V-79 (HPRT)/6-THIOGUANINE, Metabolic Activation: NONE", "value": "active; positive"}]}
{"smiles": "Cc1ccc2cc3c(ccc4ccccc43)c3c2c1C(=O)C3", "values": [{"measurement": "mutagenic call", "setting": "Test System: CHINESE HAMSTER V-79, Strain/Indicator: V-79/8-AZAGUANINE, Metabolic Activation: RAT, LIVER, S-9, AROCLOR 1254, Method: STANDARD PLATE", "value": "active; positive"}]}
{"smiles": "NNc1ccc([N+](=O)[O-])cc1", "values": [{"measurement": "mutagenic call", "setting": "[7]", "value": "active; positive"}, {"measurement": "mutagenic call", "setting": "Test System: AMES SALMONELLA TYPHIMURIUM, Strain/Indicator: TA98, Metabolic Activation: RAT, LIVER, S-9, KANECHLOR 500, Method: PREINCUBATION", "value": "active; positive"}, {"measurement": "mutagenic call", "setting": "[8]", "value": "active; positive"}, {"measurement": "mutagenic call", "setting": "Test System: AMES SALMONELLA TYPHIMURIUM, Strain/Indicator: TA100, Metabolic Activation: RAT, LIVER, S-9, KANECHLOR 500, Method: PREINCUBATION", "value": "active; positive"}]}
{"smiles": "O=C(O)Cc1ccc([N+](=O)[O-])cc1", "values": [{"measurement": "mutagenic call", "setting": "[7]", "value": "active; positive"}, {"measurement": "mutagenic call", "setting": "[8]", "value": "active; positive"}, {"measurement": "mutagenic call", "setting": "Test System: AMES SALMONELLA TYPHIMURIUM, Strain/Indicator: TA1535, Metabolic Activation: NONE, Method: PREINCUBATION", "value": "inactive; negative"}, {"measurement": "mutagenic call", "setting": "Test System: AMES SALMONELLA TYPHIMURIUM, Strain/Indicator: TA1537, Metabolic Activation: NONE, Method: PREINCUBATION", "value": "inactive; negative"}, {"measurement": "mutagenic call", "setting": "Test System: AMES SALMONELLA TYPHIMURIUM, Strain/Indicator: TA1538, Metabolic Activation: NONE, Method: PREINCUBATION", "value": "inactive; negative"}]}
{"smiles": "Cn1cc(C[C@@]2(O)C(=O)O[C@@H]3[C@@H](O)CO[C@@]32O)c2ccccc21", "values": [{"measurement": "mutagenic call", "setting": "[1]", "value": "active; positive"}, {"measurement": "mutagenic call", "setting": "Test System: AMES SALMONELLA TYPHIMURIUM, Strain/Indicator: TA98, Metabolic Activation: RAT, LIVER, S-9, PCB, Method: STANDARD PLATE", "value": "active; positive"}, {"measurement": "mutagenic call", "setting": "[3]", "value": "active; positive"}, {"measurement": "mutagenic call", "setting": "Test System: AMES SALMONELLA TYPHIMURIUM, Strain/Indicator: TA100, Metabolic Activation: RAT, LIVER, S-9, PCB, Method: STANDARD PLATE", "value": "active; positive"}]}
{"smiles": "CN(CCCC(O)c1cccnc1)N=O", "note": "(stereo unspecified)", "values": [{"measurement": "mutagenic call", "setting": "Test System: AMES SALMONELLA TYPHIMURIUM, Strain/Indicator: TA1535, Metabolic Activation: HAMSTER LIVER S-9, AROCLOR 1254 (5% OR 10%), Method: MICROSUPENSION", "value": "active; positive"}, {"measurement": "mutagenic call", "setting": "Test System: AMES SALMONELLA TYPHIMURIUM, Strain/Indicator: TA1535, Metabolic Activation: RAT LIVER S-9, AROCLOR 1254 (5% OR 10%), Method: MICROSUSPENSION", "value": "active; positive"}]}
{"smiles": "Cn1c(NO)nc2ncc(-c3ccccc3)cc21", "values": [{"measurement": "mutagenic call", "setting": "Test System: AMES SALMONELLA TYPHIMURIUM, Strain/Indicator: TA98(1,8-DNP6), Metabolic Activation: NONE, Method: STANDARD PLATE", "value": "active; positive"}, {"measurement": "mutagenic call", "setting": "[1]", "value": "active; positive"}, {"measurement": "mutagenic call", "setting": "[2]", "value": "active; positive"}]}
{"smiles": "CC(C)(C)c1cc(/C=C/c2cc(C(C)(C)C)c(O)c(C(C)(C)C)c2)cc(C(C)(C)C)c1O", "values": [{"measurement": "mutagenic call", "setting": "[7]", "value": "inactive; negative"}, {"measurement": "mutagenic call", "setting": "Test System: AMES SALMONELLA TYPHIMURIUM, Strain/Indicator: TA98, Metabolic Activation: RAT, LIVER, S-9, Method: PREINCUBATION", "value": "inactive; negative"}, {"measurement": "mutagenic call", "setting": "[8]", "value": "inactive; negative"}, {"measurement": "mutagenic call", "setting": "Test System: AMES SALMONELLA TYPHIMURIUM, Strain/Indicator: TA100, Metabolic Activation: RAT, LIVER, S-9, Method: PREINCUBATION", "value": "inactive; negative"}]}
{"smiles": "COc1cc([C@@H]2c3cc4c(cc3[C@H](O)[C@H]3COC(=O)[C@H]23)OCO4)cc(OC)c1OC", "values": [{"measurement": "mutagenic call", "setting": "Test System: AMES SALMONELLA TYPHIMURIUM, Strain/Indicator: TA98, Metabolic Activation: HAMSTER, LIVER, S-9, AROCLOR 1254, Method: STANDARD PLATE", "value": "inactive; negative"}, {"measurement": "mutagenic call", "setting": "[1]", "value": "inactive; negative"}, {"measurement": "mutagenic call", "setting": "[2]", "value": "inactive; negative"}, {"measurement": "mutagenic call", "setting": "Test System: AMES SALMONELLA TYPHIMURIUM, Strain/Indicator: TA100, Metabolic Activation: HAMSTER, LIVER, S-9, AROCLOR 1254, Method: STANDARD PLATE", "value": "inactive; negative"}, {"measurement": "mutagenic call", "setting": "[3]", "value": "inactive; negative"}, {"measurement": "mutagenic call", "setting": "[4]", "value": "inactive; negative"}, {"measurement": "mutagenic call", "setting": "[5]", "value": "inactive; negative"}, {"measurement": "mutagenic call", "setting": "[6]", "value": "inactive; negative"}, {"measurement": "mutagenic call", "setting": "Test System: AMES SALMONELLA TYPHIMURIUM, Strain/Indicator: TA1535, Metabolic Activation: HAMSTER, LIVER, S-9, AROCLOR 1254, Method: STANDARD PLATE", "value": "inactive; negative"}, {"measurement": "mutagenic call", "setting": "Test System: AMES SALMONELLA TYPHIMURIUM, Strain/Indicator: TA1535, Metabolic Activation: NONE, Method: STANDARD PLATE", "value": "inactive; negative"}, {"measurement": "mutagenic call", "setting": "Test System: AMES SALMONELLA TYPHIMURIUM, Strain/Indicator: TA1535, Metabolic Activation: RAT, LIVER, S-9, AROCLOR 1254, Method: STANDARD PLATE", "value": "inactive; negative"}, {"measurement": "mutagenic call", "setting": "Test System: AMES SALMONELLA TYPHIMURIUM, Strain/Indicator: TA1537, Metabolic Activation: HAMSTER, LIVER, S-9, AROCLOR 1254, Method: STANDARD PLATE", "value": "inactive; negative"}, {"measurement": "mutagenic call", "setting": "Test System: AMES SALMONELLA TYPHIMURIUM, Strain/Indicator: TA1537, Metabolic Activation: NONE, Method: STANDARD PLATE", "value": "inactive; negative"}, {"measurement": "mutagenic call", "setting": "Test System: AMES SALMONELLA TYPHIMURIUM, Strain/Indicator: TA1537, Metabolic Activation: RAT, LIVER, S-9, AROCLOR 1254, Method: STANDARD PLATE", "value": "inactive; negative"}, {"measurement": "mutagenic call", "setting": "[9]", "value": "inactive; negative. reevaluation of results: negative"}, {"measurement": "mutagenic call", "setting": "[10]", "value": "inactive; negative. reevaluation of results: negative"}]}
